# Data from ChEMBL document CHEMBL4665642, “Anticancer profile of newly synthesized BRAF inhibitors possess 5-(pyrimidin-4-yl)imidazo[2,1-b]thiazole scaffold” (Bioorg Med Chem, 2019).
# Legend:
# Assay type in all cases: functional
# Details in all cases: read-out: Activity
# SW-620 = assay: Cytotoxicity against human SW-620 cells assessed as cell viability at 10 uM incubated for 48 hrs by sulforhodamine B assay relative to control
# A549 = assay: Cytotoxicity against human A549 cells assessed as cell viability at 10 uM incubated for 48 hrs by sulforhodamine B assay relative to control
# TK-10 = assay: Cytotoxicity against human TK-10 cells assessed as cell viability at 10 uM incubated for 48 hrs by sulforhodamine B assay relative to control
# SF-268 = assay: Cytotoxicity against human SF-268 cells assessed as cell viability at 10 uM incubated for 48 hrs by sulforhodamine B assay relative to control
# K562 = assay: Cytotoxicity against human K562 cells assessed as cell viability at 10 uM incubated for 48 hrs by sulforhodamine B assay relative to control
# MDA-MB-231 = assay: Cytotoxicity against human MDA-MB-231 cells assessed as cell viability at 10 uM incubated for 48 hrs by sulforhodamine B assay relative to control
# Malme-3M = assay: Cytotoxicity against human Malme-3M cells assessed as cell viability at 10 uM incubated for 48 hrs by sulforhodamine B assay relative to control
# COLO 205 = assay: Cytotoxicity against human COLO 205 cells assessed as cell viability at 10 uM incubated for 48 hrs by sulforhodamine B assay relative to control
# DU-145 = assay: Cytotoxicity against human DU-145 cells assessed as cell viability at 10 uM incubated for 48 hrs by sulforhodamine B assay relative to control
# HCC 2998 = assay: Cytotoxicity against human HCC 2998 cells assessed as cell viability at 10 uM incubated for 48 hrs by sulforhodamine B assay relative to control
# IGROV-1 = assay: Cytotoxicity against human IGROV-1 cells assessed as cell viability at 10 uM incubated for 48 hrs by sulforhodamine B assay relative to control
# SK-OV-3 = assay: Cytotoxicity against human SK-OV-3 cells assessed as cell viability at 10 uM incubated for 48 hrs by sulforhodamine B assay relative to control
# NCI-H322M = assay: Cytotoxicity against human NCI-H322M cells assessed as cell viability at 10 uM incubated for 48 hrs by sulforhodamine B assay relative to control
# HCT-15 = assay: Cytotoxicity against human HCT-15 cells assessed as cell viability at 10 uM incubated for 48 hrs by sulforhodamine B assay relative to control
# HL-60(TB) = assay: Cytotoxicity against human HL-60(TB) cells assessed as cell viability at 10 uM incubated for 48 hrs by sulforhodamine B assay relative to control
# Hs-578T = assay: Cytotoxicity against human HS-578T cells assessed as cell viability at 10 uM incubated for 48 hrs by sulforhodamine B assay relative to control
# SK-MEL-5 = assay: Cytotoxicity against human SK-MEL-5 cells assessed as cell viability at 10 uM incubated for 48 hrs by sulforhodamine B assay relative to control
# SF-539 = assay: Cytotoxicity against human SF-539 cells assessed as cell viability at 10 uM incubated for 48 hrs by sulforhodamine B assay relative to control
# M14 = assay: Cytotoxicity against human M14 cells assessed as cell viability at 10 uM incubated for 48 hrs by sulforhodamine B assay relative to control
# SNB-75 = assay: Cytotoxicity against human SNB-75 cells assessed as cell viability at 10 uM incubated for 48 hrs by sulforhodamine B assay relative to control
# U-251 = assay: Cytotoxicity against human U-251 cells assessed as cell viability at 10 uM incubated for 48 hrs by sulforhodamine B assay relative to control
# SR = assay: Cytotoxicity against human SR cells assessed as cell viability at 10 uM incubated for 48 hrs by sulforhodamine B assay relative to control
# UACC-257 = assay: Cytotoxicity against human UACC-257 cells assessed as cell viability at 10 uM incubated for 48 hrs by sulforhodamine B assay relative to control
# SK-MEL-2 = assay: Cytotoxicity against human SK-MEL-2 cells assessed as cell viability at 10 uM incubated for 48 hrs by sulforhodamine B assay relative to control
# CCRF-CEM = assay: Cytotoxicity against human CCRF-CEM cells assessed as cell viability at 10 uM incubated for 48 hrs by sulforhodamine B assay relative to control
# BT-549 = assay: Cytotoxicity against human BT-549 cells assessed as cell viability at 10 uM incubated for 48 hrs by sulforhodamine B assay relative to control
# MDA-MB-468 = assay: Cytotoxicity against human MDA-MB-468 cells assessed as cell viability at 10 uM incubated for 48 hrs by sulforhodamine B assay relative to control
# NCI/ADR-RES = assay: Cytotoxicity against human NCI/ADR-RES cells assessed as cell viability at 10 uM incubated for 48 hrs by sulforhodamine B assay relative to control
# NCI-H23 = assay: Cytotoxicity against human NCI-H23 cells assessed as cell viability at 10 uM incubated for 48 hrs by sulforhodamine B assay relative to control
# NCI-H460 = assay: Cytotoxicity against human NCI-H460 cells assessed as cell viability at 10 uM incubated for 48 hrs by sulforhodamine B assay relative to control
# UO-31 = assay: Cytotoxicity against human UO-31 cells assessed as cell viability at 10 uM incubated for 48 hrs by sulforhodamine B assay relative to control
# NCI-H226 = assay: Cytotoxicity against human NCI-H226 cells assessed as cell viability at 10 uM incubated for 48 hrs by sulforhodamine B assay relative to control
# SF-295 = assay: Cytotoxicity against human SF-295 cells assessed as cell viability at 10 uM incubated for 48 hrs by sulforhodamine B assay relative to control
# ACHN = assay: Cytotoxicity against human ACHN cells assessed as cell viability at 10 uM incubated for 48 hrs by sulforhodamine B assay relative to control
# OVCAR-8 = assay: Cytotoxicity against human OVCAR-8 cells assessed as cell viability at 10 uM incubated for 48 hrs by sulforhodamine B assay relative to control
# RPMI-8226 = assay: Cytotoxicity against human RPMI-8226 cells assessed as cell viability at 10 uM incubated for 48 hrs by sulforhodamine B assay relative to control
# T47D = assay: Cytotoxicity against human T47D cells assessed as cell viability at 10 uM incubated for 48 hrs by sulforhodamine B assay relative to control
# MDA-MB-435 = assay: Cytotoxicity against human MDA-MB-435 cells assessed as cell viability at 10 uM incubated for 48 hrs by sulforhodamine B assay relative to control
# OVCAR-5 = assay: Cytotoxicity against human OVCAR-5 cells assessed as cell viability at 10 uM incubated for 48 hrs by sulforhodamine B assay relative to control
# 786-0 = assay: Cytotoxicity against human 786-0 cells assessed as cell viability at 10 uM incubated for 48 hrs by sulforhodamine B assay relative to control
SMILES,viability at 10 µM (SW-620),viability at 10 µM (A549),viability at 10 µM (TK-10),viability at 10 µM (SF-268),viability at 10 µM (K562),viability at 10 µM (MDA-MB-231),viability at 10 µM (Malme-3M),viability at 10 µM (COLO 205),viability at 10 µM (DU-145),viability at 10 µM (HCC 2998),viability at 10 µM (IGROV-1),viability at 10 µM (SK-OV-3),viability at 10 µM (NCI-H322M),viability at 10 µM (HCT-15),viability at 10 µM (HL-60(TB)),viability at 10 µM (Hs-578T),viability at 10 µM (SK-MEL-5),viability at 10 µM (SF-539),viability at 10 µM (M14),viability at 10 µM (SNB-75),further results
O=S(=O)(NCCNc1nccc(-c2c(-c3cccc(F)c3)nc3sccn23)n1)c1ccc(Cl)cc1,59.6%,32.1%,88.5%,52.9%,41.3%,91.1%,82.7%,40%,54.2%,83.4%,15.8%,94.9%,65.5%,31.9%,96%,72.5%,36.5%,82.5%,56.6%,78.9%,viability at 10 µM (U-251): 55.2%; viability at 10 µM (SR): 40.6%; viability at 10 µM (UACC-257): 88.7%; viability at 10 µM (SK-MEL-2): 79.8%; viability at 10 µM (CCRF-CEM): 50.5%; viability at 10 µM (BT-549): 71.3%; viability at 10 µM (MDA-MB-468): 64.5%; viability at 10 µM (NCI/ADR-RES): 67.7%; viability at 10 µM (NCI-H23): 74.9%; viability at 10 µM (NCI-H460): 30.1%; viability at 10 µM (UO-31): 23.9%; viability at 10 µM (NCI-H226): 49.3%; viability at 10 µM (SF-295): 63.7%; viability at 10 µM (ACHN): 35.7%; viability at 10 µM (OVCAR-8): 53.6%; viability at 10 µM (RPMI-8226): 59.5%; viability at 10 µM (T47D): 43.2%; viability at 10 µM (MDA-MB-435): 26.3%; viability at 10 µM (OVCAR-5): 93.3%; viability at 10 µM (786-0): 51.3%
O=C(NCCNc1nccc(-c2c(-c3cccc(F)c3)nc3sccn23)n1)c1ccc(Cl)cc1,65.2%,34.8%,75.4%,67.9%,54.4%,65.5%,34.9%,29.8%,71%,90.1%,22.5%,80.9%,66.3%,40.1%,99.2%,74.8%,33.6%,90%,38.8%,63.5%,viability at 10 µM (U-251): 66.1%; viability at 10 µM (SR): 46.5%; viability at 10 µM (UACC-257): 76%; viability at 10 µM (SK-MEL-2): 62.5%; viability at 10 µM (CCRF-CEM): 58.1%; viability at 10 µM (BT-549): 75.9%; viability at 10 µM (MDA-MB-468): 67.8%; viability at 10 µM (NCI/ADR-RES): 74.3%; viability at 10 µM (NCI-H23): 73.5%; viability at 10 µM (NCI-H460): 35.8%; viability at 10 µM (UO-31): 28.1%; viability at 10 µM (NCI-H226): 51.2%; viability at 10 µM (SF-295): 73.8%; viability at 10 µM (ACHN): 34.2%; viability at 10 µM (OVCAR-8): 55.1%; viability at 10 µM (RPMI-8226): 62.4%; viability at 10 µM (T47D): 49%; viability at 10 µM (MDA-MB-435): 32%; viability at 10 µM (OVCAR-5): 88.3%; viability at 10 µM (786-0): 54.5%
O=C(NCCCNc1nccc(-c2c(-c3cccc(F)c3)nc3sccn23)n1)c1ccc(F)cc1,115%,76.3%,95.9%,71%,75.7%,120%,140%,64.7%,81.2%,112%,49.4%,66.3%,96.3%,65.2%,110%,83.2%,67.8%,99.4%,85.3%,83.9%,viability at 10 µM (U-251): 90.6%; viability at 10 µM (SR): 99.8%; viability at 10 µM (UACC-257): 116%; viability at 10 µM (SK-MEL-2): 95%; viability at 10 µM (CCRF-CEM): 75.9%; viability at 10 µM (BT-549): 85.2%; viability at 10 µM (MDA-MB-468): 59.2%; viability at 10 µM (NCI/ADR-RES): 78.8%; viability at 10 µM (NCI-H23): 105%; viability at 10 µM (NCI-H460): 95.2%; viability at 10 µM (UO-31): 36.9%; viability at 10 µM (NCI-H226): 69%; viability at 10 µM (SF-295): 97.2%; viability at 10 µM (ACHN): 74.9%; viability at 10 µM (OVCAR-8): 68.4%; viability at 10 µM (RPMI-8226): 87.2%; viability at 10 µM (T47D): 50.6%; viability at 10 µM (MDA-MB-435): 72.6%; viability at 10 µM (OVCAR-5): 141%; viability at 10 µM (786-0): 62.5%
O=S(=O)(NCCCNc1nccc(-c2c(-c3cccc(F)c3)nc3sccn23)n1)c1cccc2ccccc12,42.1%,45.6%,71.7%,44.5%,15.2%,4.05%,78.7%,21.5%,49.9%,16.3%,22.3%,65.8%,81.6%,18.1%,53.9%,55.9%,31.8%,72.8%,42.7%,86.5%,viability at 10 µM (U-251): 59.1%; viability at 10 µM (SR): 62%; viability at 10 µM (UACC-257): 72.8%; viability at 10 µM (SK-MEL-2): 47.8%; viability at 10 µM (CCRF-CEM): 38.5%; viability at 10 µM (BT-549): 65%; viability at 10 µM (MDA-MB-468): 59.3%; viability at 10 µM (NCI/ADR-RES): 47.1%; viability at 10 µM (NCI-H23): 66.2%; viability at 10 µM (NCI-H460): 19.9%; viability at 10 µM (UO-31): 20%; viability at 10 µM (NCI-H226): 36.8%; viability at 10 µM (SF-295): 34.6%; viability at 10 µM (ACHN): 34.7%; viability at 10 µM (OVCAR-8): 38.5%; viability at 10 µM (RPMI-8226): 44.9%; viability at 10 µM (T47D): 18.4%; viability at 10 µM (MDA-MB-435): 22.6%; viability at 10 µM (OVCAR-5): 80.9%; viability at 10 µM (786-0): 52.9%
